Values of other authors in US20100143437A1, “IMPLANTABLE ANALGESIC” (priority 2008, published 2010).

Settings: in adults

half life: approximately 210 minutes
SMILES: CCCCN1CCCCC1C(=O)Nc1c(C)cccc1C (stereo not shown) [bupivacaine, 1-butyl-N-(2,6-dimethylphenyl) piperidine-2-carboxamide]
